For one molecule, Kd results are on record in article PMC6457333 (Chemical Science, 2019).

In the experiment the target is N. europaea cyt P460 (Nitrosomonas europaea, UniProt Q50927). In words: biochemical.

As a reminder, the Kd is the constant that tells how readily two partners part at equilibrium.

Chain of N. europaea cyt P460 (Q50927 27-198): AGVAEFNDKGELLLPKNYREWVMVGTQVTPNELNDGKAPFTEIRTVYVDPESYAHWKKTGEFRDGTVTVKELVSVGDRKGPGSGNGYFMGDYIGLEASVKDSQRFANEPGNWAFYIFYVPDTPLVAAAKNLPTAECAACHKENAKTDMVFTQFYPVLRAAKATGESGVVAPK

The molecule `NO` [hydroxylamine] gave a Kd of 9 ± 1 mM.
